Measurements taken from BindingDB's records for doi:10.1073/pnas.151105198 (Synaptic Pharmaceutical, 2001).

Molecular target: T1, Trace amine-associated receptor 1 (Homo sapiens, UniProt Q96RJ0)
T1 sequence (Q96RJ0 whole entry): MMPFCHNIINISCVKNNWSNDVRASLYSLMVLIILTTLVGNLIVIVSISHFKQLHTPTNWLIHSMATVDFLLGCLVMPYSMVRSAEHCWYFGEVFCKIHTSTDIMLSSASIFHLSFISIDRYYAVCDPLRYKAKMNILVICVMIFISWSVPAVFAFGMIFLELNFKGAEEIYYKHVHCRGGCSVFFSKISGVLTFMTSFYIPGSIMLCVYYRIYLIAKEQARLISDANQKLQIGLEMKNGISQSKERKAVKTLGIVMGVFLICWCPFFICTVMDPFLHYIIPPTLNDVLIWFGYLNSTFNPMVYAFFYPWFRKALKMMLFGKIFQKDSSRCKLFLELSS

Row | SMILES | Ki
1 | NCCc1ccc(O)cc1 | 34 nM
2 | CN1CCN(C2Cc3ccccc3Sc3ccc(Cl)cc32)CC1 (stereo unspecified) [1-(8-chloro-10,11-dihydrodibenzo[b,f]thiepin-10-yl)-4-methylpiperazine] | 493 nM
3 | NCCc1c[nH]c2ccccc12 [1H-indole-3-ethanamine] | 1080 nM
4 | OCCc1ccccc1 [NSC_6054] | 8 nM
5 | NCC(O)c1ccc(O)c(O)c1 (stereo not drawn) [Noradrenaline,(+)] | > 10000 nM
6 | NCCc1c[nH]cn1 [[3H]histamine] | 3110 nM
